Some test systems named below: DLD-1 colon; HOP-18 NSCLC; LXFL 529 NSCLC; KM20L2 colon; RXF-631 renal; DMS 114 small cell lung; XF 498 CNS; MDA-N; SNB-78 CNS.
Holding throughout (experiment): NCI anticancer screen, dose series, 48 h

Molecules are shown by their SMILES.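 Five concentrations, 48 hours, 96-well plates. At the TGI there is no net growth.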 A value given as a limit tells only on which side of the number the result lay.

Turning to `CN1CCN(C)C12C=c1ccccc1=CC21CC1`, the TGI in the assay with DLD-1 colon is 68.2 µM; in the assay with HOP-18 NSCLC, greater than 100 µM; in the assay with LXFL 529 NSCLC, 31.2 µM; with KM20L2 colon, greater than 58.2 µM; with RXF-631 renal, greater than 100 µM; in the assay with DMS 114 small cell lung, 36.3 µM. For the same compound, the results for the TGI in the assay with XF 498 CNS, with MDA-N and with SNB-78 CNS were 49.5 µM, greater than 63.9 µM and greater than 100 µM, respectively.
Turning to `CCCCN=C(NC#N)NCCCC`, the TGI in the assay with DLD-1 colon, with HOP-18 NSCLC, with LXFL 529 NSCLC, in the assay on KM20L2 colon, in the assay on RXF-631 renal and in the assay with DMS 114 small cell lung was greater than 100 µM in each case. Besides, the TGI in the assay on XF 498 CNS and with SNB-78 CNS was greater than 100 µM throughout.
For the compound `O=C1/C(=C/c2ccccc2)CNC/C1=C\c1ccccc1`, the TGI was found to be 1.08 µM in the assay on DLD-1 colon; 22.9 µM in the assay with HOP-18 NSCLC; 3.58 µM with LXFL 529 NSCLC; 3.09 µM with KM20L2 colon; 13 µM in the assay on RXF-631 renal; 8.36 µM with DMS 114 small cell lung. Also, the TGI with XF 498 CNS is 6.41 µM; with SNB-78 CNS, 41.8 µM.
As for `NC(CCC(=O)NC(CSSCCCCS(=O)O)C(=O)NCC(=O)O)C(=O)O` (stereo not drawn), the TGI in the assay on DLD-1 colon, in the assay on HOP-18 NSCLC, in the assay with LXFL 529 NSCLC, in the assay with KM20L2 colon, in the assay on RXF-631 renal and with DMS 114 small cell lung was greater than 100 µM throughout. In addition, the TGI in the assay with XF 498 CNS and with SNB-78 CNS was greater than 100 µM in each case.

The record behind these values is PubChem BioAssay (NCI).
